What was measured:
[1] = Determination of pKa (capillary electrophoresis, Analiza, Inc.); assay type: physicochemical; details: mean
human hepatocytes [2] = test: Intrinsic clearance in human hepatocytes (relay method); assay type: in vitro ADME; details: 1 μM, 20 h total incubation, mean +/− standard deviation
Protocol: For intrinsic clearance (CLint) measurement, hepatocyte relay method was used (Di, L., et al. 2012, Drug Metab. Dispos., 40, 1860-1865 and Di, L., et al. 2013, Drug Metab. Dispos., 41, 2018-2023). Cryopreserved human hepatocytes (Lot DCM from BioreclamationlVT) were used. Upon thawing, the hepatocytes were resuspended in Williams' medium E (custom formula number 91-5233EA; Gibco, Grand Island, N.Y.) supplemented with Hepes and Na2CO3. […] The plates were incubated at 37° C. with 95% air/5% CO2, 75% relative humidity for 4 h at 150 rpm in a humidified incubator. At time 0 and 4 h, 25 μL of hepatocyte suspension was removed from the incubation and added to 50 μL of ice-cold acetonitrile (containing metoprolol, indomethacin, and terfenadine as internal standards) to quench the reaction. The samples were centrifuged (Eppendorf, Hauppauge, N.Y.) at 3000 rpm (1439×g) for 10 min at room temperature, and 50 μL of supernatant was transferred to a clean plate, dried completely, and reconstituted before liquid chromatography/tandem mass spectrometry (LC-MS/MS) analysis. The remaining hepatocyte suspensions in the incubation plate were centrifuged (3000 rpm, 1439×g, 10 min, room temperature). The supernatant of 300 μL was transferred to a clean 24-well plate and stored at −80° C. until the next relay experiment. For the second relay experiment, the supernatant plates were warmed first to room temperature for 30 minutes, then to 37° C. for 30 min, and hepatocytes were added to the samples to give a final cell density of 0.5 million cells/mL. The plates were incubated at 37° C. for 4 h, sampled, and processed as described above. Five relays were performed to give a total incubation time of 20 h, with sampling points at (0, 4, 8, 12, 16 and 20 h). The concentrations of test compound determined at each time point by the LC-MS/MS analysis were used to calculate the intrinsic clearance.

[3] = Intrinsic clearance in human liver microsomes; assay type: in vitro ADME; details: human liver microsome assay; 1 μM test compound, 0.806 mg/mL protein, NADPH, pH 7.4, 37° C.; mean +/− STD Dev
Protocol: The incubations were conducted at 37° C. […] (Sorvall RC 3C Plus, Thermo Scientific, Waltham, Mass.).

human hepatocytes [4] = test: High throughput determination of intrinsic clearance in human hepatocytes; assay type: in vitro ADME; details: high throughput human hepatocyte assay; 0.5 million cells/mL, 1 μM test compound, 37° C.; mean +/− Std Dev
Protocol: The incubation was carried out at 37° C. […] The samples were centrifuged (Eppendorf, Hauppauge, N.Y.) at 3000 rpm for 5 min at 4° C.

## CCOc1cccnc1Oc1cncc(-c2ncc(C(=O)NC3(CO)CCOC3)cn2)c1 (single isomer, unassigned) [WO2018033832 Ex. 6b]
[1]
  Basic pKa (most basic pKa): 2.4
Human hepatocytes [2]
  CLint (+/− Std Dev), relay hepatocyte assay: 2.9 +/− 0.057 μL/min/million cells
[3]
  CLint (μL/min/mg) (+/− STD Dev): <11 ± 3.5 µL/min/mg
Human hepatocytes [4]
  CLint (μL/min/10^6 cells) (+/− Std Dev): <3.3 +/− 0.49 μL/min/10^6 cells

From patent US11471458B2, “Diacylglycerol acyl transferase 2 inhibitor” (Pfizer Inc., priority 2019, dated 2022)
